Earlier results as cited in patent publication US9314447B2 (Lupin Atlantis Holdings, S.A., priority 2012, dated 2016).

Details: in vivo

## CC(C)(Oc1ccc(C(=O)c2ccc(Cl)cc2)cc1)C(=O)O [Fenofibric acid]
  elimination half-life: about 20 hours
